We go through two compounds from publication PMC11898701, “Evaluating Therapeutic Efficacy of the Vascular Disrupting Agent OXi8007 Against Kidney Cancer in Mice” (Cancers, 2025).

Data set [1] deals with Renca-luc cells. Briefly: Renca-luc sulforhodamine B (SRB) assay, cell growth inhibition. The settings on record: Mus musculus; Renca-luc cells, SRB, 48 h treatment; read-out: IC50. Format: cell-based. The procedure: (§1) In two independent trials of Renca and Renca-luc cells were plated in triplicate at 8000 cells/well into 96-well plates and incubated for 24 h at 37 °C in a humidified incubator with 5% CO2 followed by a 48 h treatment period at ten-fold dilutions of the drug.
On the technique in general: In SRB staining, fixed cells bind dye roughly in proportion to their protein.

In data set [2] the test system is Renca cells. Kind of data set: Renca sulforhodamine B (SRB) assay, cell growth inhibition. The note with it: Mus musculus; Renca cells, SRB, 48 h treatment; read-out: IC50. Type of data set: cell-based. The procedure: as §1
The subject of data set [3] is orthotopic XP258 human tumor xenografts. Kind of data set: Long-term therapy of XP258 human tumor xenografts. The note with it: XP258 in NOD/SCID mice; OXi8007 250 mg/kg IP twice weekly, cabozantinib 3 mg/kg oral daily. Format: in vivo, mouse. The text has this:
The animal procedures were approved by the UT Southwestern Medical Center Institutional Animal Care and Use Committee under APNs 2017-102152 and 2018-102344-CORE. Renca-luc orthotopic tumors were induced by inserting tumor tissue (~1 mm^3) harvested from a donor mouse into the right kidney of syngeneic BALB/c mice (age 8 weeks, male and female; Envigo, Indianapolis, IN, USA), as described previously. Orthotopic XP258 tumors (derived from a patient with pT3aN0M1 clear cell RCC) were obtained from the UT Southwestern Kidney Cancer SPORE [53, 54] and maintained by serial passage. Tumors were induced by inserting tumor tissues from a donor tumor into the left kidney capsule of female NOD/SCID mice (Envigo).
(§2) OXi8007, synthesized by the Pinney Laboratory using published procedures, was dissolved in saline, verified to be in the pH range 7.3 to 7.5, and dosed at 250 mg/kg (IP). Cabozantinib (in PEG400 and ultrapure H2O (Milli-Q)) was administered at 3 mg/kg by oral gavage. Anti-PD-1 (10 mg/kg, Bio X Cell, Lebanon, NH, USA) and anti-CTLA-4 (5 mg/kg, Bio X Cell, Lebanon, NH) solutions were administered (IP) on the day before OXi8007 […].
We evaluated the longitudinal effects of OXi8007 alone and in combination with drugs currently favored for treating kidney cancer. For Renca-luc tumor-bearing mice, BLI was performed at least once a week to estimate tumor size, and mice were weighed weekly to adjust the dose as needed. Two treatment cohorts examined syngeneic orthotopic Renca-luc tumors in male BALB/c mice. Treatment started when the tumors reached about 1 × 10^6 photons/s peak total flux on BLI. The first cohort examined OXi8007 with cabozantinib. Mice were divided into four groups. Mice were assigned to groups as soon as there were sufficient to add the same numbers of animals to each group. The specific assignment was defined using the random number function in Excel. As such, each group included both faster- and slower-growing tumors. […]

The test system of data set [4] is subcutaneous Renca tumors. The arrangement: method as in PMID 33954115. The note with it: 10 mg/kg, day 14; cited from earlier work.
In data set [5] the test system is orthotopic Renca-luc tumors. Kind of data set: Long-term therapy with OXi8007 and/or cabozantinib. Type of data set: in vivo, mouse. The procedure: as §2
We evaluated the longitudinal effects of OXi8007 alone and in combination with drugs currently favored for treating kidney cancer. For Renca-luc tumor-bearing mice, BLI was performed at least once a week to estimate tumor size, and mice were weighed weekly to adjust the dose as needed. Two treatment cohorts examined syngeneic orthotopic Renca-luc tumors in male BALB/c mice. Treatment started when the tumors reached about 1 × 10^6 photons/s peak total flux on BLI. The first cohort examined OXi8007 with cabozantinib. Mice were divided into four groups. Mice were assigned to groups as soon as there were sufficient to add the same numbers of animals to each group. The specific assignment was defined using the random number function in Excel. […] The second cohort was treated with CKIs and OXi8007 using four groups: Group 5 (OXi8007 + anti-PD-1 (10 mg/kg) + anti-CTLA-4 (5 mg/kg); n = 4), Group 6 (saline + anti-PD-1+ anti-CTLA-4; n = 3), Group 7 (saline + anti-PD-1; n = 3), and Group 8 (saline + anti-CTLA-4; n = 4). CKI antibodies were administered thrice weekly (M, W, F) for the first two weeks after the first treatment with OXi8007, which was administered twice weekly. […] Initial tumor growth was confirmed by palpation, and the mice were assigned to groups such that the first mouse with a confirmed tumor was assigned to Group 5, next to Group 6, etc., ensuring that all groups had both faster- and slower-growing tumors. […] Tumor size (BLI signal) and mouse body weights were compared using an ANOVA and multiple comparisons at a significance level of p < 0.05. Kaplan–Meier survival curves were compared using a non-parametric log-rank test using SAS software (SAS Institute Inc., SAS Viya for learners 4, Cary, NC, USA).

As to `COc1ccc(/C=C\c2cc(OC)c(OC)c(OC)c2)cc1O` [CA4, combretastatin A-4, reference compound], the values for the IC50 in data set [1] and in data set [2] were 109 ± 23 nM and 48 ± 2 nM, respectively.

Turning to `COc1cc2nccc(Oc3ccc(NC(=O)C4(C(=O)Nc5ccc(F)cc5)CC4)cc3)c2cc1OC` [cabozantinib, reference compound], the Survival versus controls result in data set [3] is reported as “significantly enhanced survival”. Further, the Tumor size reduction in data set [4] is 50%. Besides, the “Body weight versus untreated control mice” value in data set [5] (Renca-luc BALB/c mice, over course of treatment) is recorded as “significant weight loss”. Further, in data set [5] (Renca-luc, versus control), the “Tumor growth delay (BLI)” value is on record as “significant tumor growth delay”. Besides, in data set [5] (Renca-luc, OXi8007 250 mg/kg IP twice weekly, cabozantinib 3 mg/kg oral daily), the Median survival time is 64 days.
